The results in this text go back to ChEMBL document CHEMBL1151432, “Increased susceptibility to colistin in hypermutable Pseudomonas aeruginosa strains from chronic respiratory infections” (Antimicrob Agents Chemother, 2007).

What is called MIC is the lowest concentration that inhibits growth of the organism. Low readings indicate greater potency, high ones weaker potency.

Holding throughout (assay type): functional, organism-based
The subject of test [1] is Pseudomonas aeruginosa. The test is described as follows: Antimicrobial activity against Pseudomonas aeruginosa ATCC 27853 by Etest method.
The test system of test [2] is Pseudomonas aeruginosa. The test is described as follows: Antimicrobial activity against non-hypermutable Pseudomonas aeruginosa isolated from intensive care unit patients with chronic respiratory infection by Etest method.
The subject of test [3] is Pseudomonas aeruginosa. The test is described as follows: Antimicrobial activity against hypermutable Pseudomonas aeruginosa isolated from patients with chronic respiratory infection by Etest method.
Test [4] has as its system Pseudomonas aeruginosa. The test is described as follows: Antimicrobial activity against non-hypermutable Pseudomonas aeruginosa isolated from patients with chronic respiratory infection by Etest method.
The subject of test [5] is Pseudomonas aeruginosa. The test is described as follows: Antimicrobial activity against Pseudomonas aeruginosa PAO1 by Etest method.
Test [6] deals with Pseudomonas aeruginosa. The test is described as follows: Antimicrobial activity against mutS-deficient Pseudomonas aeruginosa PAO1 by Etest method.

For COLISTIN, the MIC against Pseudomonas aeruginosa [1] came out at 1 µg/mL; against Pseudomonas aeruginosa [2], 2 µg/mL; with Pseudomonas aeruginosa [3], 0.48 µg/mL; against Pseudomonas aeruginosa [4] it was 0.92 µg/mL; in the test on Pseudomonas aeruginosa [5], 2 µg/mL; against Pseudomonas aeruginosa [6], 2 µg/mL.
